Common to all, as to experiment: inhibition of tumour cell growth, NCI panel, 48 h
Experiment [1] deals with M14 melanoma.
Experiment [2] has as its system MOLT-4 leukemia.
Experiment [3] concerns NCI-H23 lung.
Experiment [4] has as its system SK-MEL-2 melanoma.
In experiment [5] the test system is SK-MEL-5 melanoma.
The subject of experiment [6] is SNB-19 CNS.
Experiment [7] deals with SR leukemia.
For experiment [8], the system named is UACC-257 melanoma.
The subject of experiment [9] is UACC-62 melanoma.
The test system of experiment [10] is A498 renal.

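Cells were grown in 96-well plates and exposed to each compound for 48 hours at five concentrations; endpoints were interpolated linearly between bracketing concentrations, or set to the highest concentration if not reached. At the TGI there is no net growth.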

Take `O=c1cc(-c2ccc(O)cc2)n(C2CC2)c2ccccc12`: the TGI in experiment [1] was 20.7 µM; in [2], greater than 100 µM; in experiment [3], 26.6 µM; in experiment [4], 8.2 µM; in [5], 18.5 µM; in experiment [6] it was 50.1 µM. Further, the figures for the TGI in experiment [7], in experiment [8] and in experiment [9] were greater than 100 µM, 25.8 µM and 14.8 µM, respectively.
For the molecule `CSc1nc(NC2OCC(OC(C)=O)C(OC(C)=O)C2OC(C)=O)c(N=C(C)C(C)=O)c(=O)[nH]1` (stereo unspecified), the TGI in experiment [10], in experiment [1], in experiment [2], in experiment [3], in experiment [4] and in experiment [5] was greater than 100 µM each time. For the same molecule, the TGI in experiment [6], in [7] and in experiment [8] was greater than 100 µM in each case.
For `O=C(C=P(c1ccccc1)(c1ccccc1)c1ccccc1)c1cccc(-c2cccc([N+](=O)[O-])c2)c1`, the TGI in experiment [10] was 7.87 µM; in experiment [1], greater than 100 µM; in experiment [2], 5.37 µM; in [3] it was 26.4 µM; in [5], 5.93 µM; in experiment [6], greater than 100 µM.
As for `O=C1N(c2ccccc2)C2(c3ccccc3)CC3CCCC13S2` (stereo unspecified), the TGI is greater than 100 µM in experiment [10]; greater than 100 µM in experiment [1]; greater than 100 µM in experiment [2]; greater than 100 µM in experiment [3]; 80.9 µM in experiment [4]; greater than 100 µM in experiment [5]. Besides, the TGI is greater than 100 µM in experiment [6], greater than 100 µM in experiment [7], 51.1 µM in experiment [8] and greater than 100 µM in experiment [9].
As for `O=C(C[C@H](NC(=O)OCc1ccccc1)C(=O)NC1Cc2ccccc2OC1=O)OCc1ccccc1` (stereo partly specified), the TGI in experiment [10], in experiment [1], in [2], in experiment [3], in [4] and in experiment [5] was greater than 100 µM in each case. Also, the TGI in experiment [6] and in experiment [7] was greater than 100 µM each time.
For `N#Cc1c(NC(=S)Nc2ccc(Cl)cc2)sc2c1CCCC2`, the TGI in [10] is greater than 100 µM; in [2] it was 33.8 µM; in experiment [3], greater than 100 µM; in [4], greater than 100 µM; in experiment [5] it was greater than 100 µM; in experiment [6], greater than 100 µM. The figures for the TGI in experiment [7], in experiment [8] and in experiment [9] were 89.1 µM, greater than 100 µM and greater than 100 µM, respectively.
For `OC1(c2ccc(Cl)cc2)c2c(ccc3c2OCO3)C2=NCCN21` (stereo unspecified), the TGI in [10] is 48.2 µM; in experiment [1], 30.8 µM; in [2], greater than 100 µM; in [3], greater than 100 µM; in experiment [4], 43.4 µM; in [5], 32.1 µM. For the same molecule, the TGI is greater than 100 µM in experiment [6], 53 µM in experiment [7], 37.2 µM in experiment [8] and 37 µM in [9].
Regarding `O=C(O)c1cc(=O)[nH]c(SCc2ccccc2)n1`, the TGI in [10], in experiment [1], in [2], in experiment [3], in experiment [4] and in [5] was greater than 100 µM throughout. In addition, the TGI in [6], in [7], in [8] and in experiment [9] was greater than 100 µM throughout.
Turning to `CC(C)CCC[C@@H](C)[C@H]1CC[C@H]2[C@@H]3CC[C@H]4C[C@H](N)CC[C@]4(C)[C@H]3CC[C@]12C`, the TGI in experiment [10] was 57.5 µM; in experiment [1] it was 38.5 µM; in experiment [2], greater than 100 µM; in experiment [3], greater than 100 µM; in experiment [5] it was 54.3 µM; in experiment [6], 46.9 µM. In addition, the TGI in experiment [8] was determined as 41.6 µM; in [9] it was 43.1 µM.
As to `CCN(CC)CCCC(C)Nc1ccnc2cc3ccccc3cc12` (stereo unspecified), the TGI in experiment [10] was 39.9 µM; in experiment [1] it was greater than 100 µM; in experiment [2], greater than 100 µM; in experiment [3], 96.7 µM; in experiment [4], 52.4 µM; in experiment [5], 37.1 µM. For the same molecule, the TGI in experiment [6] is 84.5 µM; in [7] it was greater than 100 µM; in [8], 46.1 µM; in experiment [9] it was 49.1 µM.
Turning to `Cc1nc2c(n1C)C(=O)c1nc(CBr)[nH]c(=O)c1C2=O`, the TGI is greater than 100 µM in experiment [10]; greater than 100 µM in experiment [1]; greater than 100 µM in [2]; greater than 100 µM in [3]; 39 µM in experiment [5]; greater than 100 µM in experiment [6]. For the same molecule, in experiment [9], the TGI was greater than 100 µM.
Turning to `N/C(=N\S(=O)(=O)c1cccc2nsnc12)Nc1ccc(Cl)cc1`, the TGI was 59.5 µM in experiment [10]; greater than 100 µM in experiment [1]; greater than 100 µM in experiment [2]; greater than 100 µM in [3]; 26.3 µM in experiment [4]; 31.2 µM in experiment [5]. Moreover, the TGI was greater than 100 µM in [6], greater than 100 µM in experiment [7], 32.5 µM in experiment [8] and 35.2 µM in experiment [9].
With `CC(C)(C)OC(=O)NCC(=O)NC1c2ccsc2/C(=N/O)[C@H]1O` (stereo partly specified), the TGI in experiment [10], in experiment [1], in [2], in experiment [3], in [4] and in experiment [5] was greater than 100 µM each time. Moreover, the TGI in experiment [6], in [7], in [8] and in experiment [9] was greater than 100 µM each time.
Regarding `CCCCCCCCCCCCCCCc1ccc(OCC(O)CO)cc1` (stereo unspecified), the TGI in [10] was greater than 100 µM; in experiment [1] it was 33.4 µM; in experiment [2], greater than 100 µM; in [3], 35.2 µM; in experiment [4] it was 42.7 µM; in [5] it was greater than 100 µM. Moreover, the TGI in experiment [6] was greater than 100 µM; in experiment [7], greater than 100 µM; in experiment [8] it was greater than 100 µM; in experiment [9], 48 µM.

The record behind these values is PubChem BioAssay (NCI).
